Where “and” joins values, the source holds several entries; their conditions need not be identical. Equal entries are not always repeated.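 48-hour exposure; five concentrations; linearly interpolated endpoints. GI50: concentration for 50% inhibition of growth. The concentration for full growth arrest is given as TGI.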 *1 amine or outer side, *2 acyl side, *3 side chain or, on linkers, in order; H or OH if unused. Where a SMILES comes first, the peptide text is derived from it. Bridges are numbered along the chain shown (N, C = ends). [ ]: non-standard residue; d: D form. The star is where a group is joined. Phe(3-Me) = Cc1cccc(C[C@H](N)C(=O)O)c1; NH(4-Cl-2-F-phenyl) = Fc1cc(Cl)ccc1N*; Pro(4R-Me) = C[C@H]1CN[C@H](C(=O)O)C1; Propanoyl(3-NMe2) = CN(C)CCC(=O)*; Hyp = O=C(O)[C@@H]1C[C@@H](O)CN1; aThr = C[C@H](O)[C@H](N)C(=O)O; Pip = O=C(O)[C@@H]1CCCCN1; CO = O=C([*:1])[*:2]
Experiments:
Assay in all cases: inhibition of tumour cell growth, NCI panel, 48 h
HOP-92 NSCLC = system: HOP-92 NSCLC
U251 CNS = system: U251 CNS
HCC-2998 colon = system: HCC-2998 colon
MOLT-4 leukemia = system: MOLT-4 leukemia
SF-539 CNS = system: SF-539 CNS
CCRF-CEM leukemia = system: CCRF-CEM leukemia
SK-MEL-2 melanoma = system: SK-MEL-2 melanoma
SK-OV-3 ovarian = system: SK-OV-3 ovarian
OVCAR-5 ovarian = system: OVCAR-5 ovarian
OVCAR-3 ovarian = system: OVCAR-3 ovarian

Structure (SMILES)	GI50 (HOP-92 NSCLC)	TGI (HOP-92 NSCLC)	GI50 (U251 CNS) [µM]	TGI (U251 CNS) [µM]	GI50 (HCC-2998 colon) [µM]	TGI (HCC-2998 colon) [µM]	GI50 (MOLT-4 leukemia)	TGI (MOLT-4 leukemia) [µM]	GI50 (SF-539 CNS)	TGI (SF-539 CNS)	GI50 (CCRF-CEM leukemia)	TGI (CCRF-CEM leukemia) [µM]	GI50 (SK-MEL-2 melanoma)	TGI (SK-MEL-2 melanoma)	GI50 (SK-OV-3 ovarian)	TGI (SK-OV-3 ovarian)	GI50 (OVCAR-5 ovarian) [µM]	TGI (OVCAR-5 ovarian) [µM]	GI50 (OVCAR-3 ovarian)	TGI (OVCAR-3 ovarian)
O=S(=O)(NCCCNc1cc(-c2cn(-c3ccccc3)nc2-c2cccc(O)c2)ccn1)c1ccc(Cl)cc1	1.52 µM	4.74 µM	1.35	3.47	1.82	3.46	1.26 µM	3.69	1.77 µM	3.79 µM	2.43 µM	7.85	1.91 µM	3.51 µM	2.35 µM	7.35 µM	2.04	5.64	1.67 µM	3.7 µM
Nc1c(C(=O)Nc2ccccc2)sc2nc3c(cc12)CCCC3	0.509 µM	> 100 µM	0.473	34	1.99	> 37.2	0.693 µM	> 100	0.452 µM	3.9 µM	0.374 µM	> 46.5	3.24 µM	> 67.3 µM	0.832 µM	37.5 µM	18.6	> 100	0.481 µM	12.3 µM
COc1ccc(/C(C)=N/NC(N)=S)c(OC)c1	–	> 100 µM	–	> 100	–	> 100	–	> 100	–	> 100 µM	–	> 100	–	> 100 µM	–	> 100 µM	–	> 100	–	> 100 µM
CC1CCC23COC(=O)C2C(O)CCC3C1(C)CC(O)c1ccoc1 (stereo not drawn)	–	> 100 µM	–	> 100	–	> 100	–	> 100	–	> 100 µM	–	> 100	–	> 100 µM	–	> 100 µM	–	> 100	–	> 100 µM
COc1ccc(CNc2nc(NCc3ccc(OC)cc3)c3n[nH]c(C(C)C)c3n2)cc1	9.48 µM	37.4 µM	4.22	21.1	2.43	5.99	3.88 µM	14.4	5.98 µM	23.5 µM	3.73 µM	15.4	1.98 µM	4.93 µM	8.3 µM	22.9 µM	8.65	56.6	3.04 µM	14.5 µM
N#CC1=C(c2ccccc2)C(O)(c2ccccc2)NC1=O (stereo not drawn)	–	75.2 µM	–	> 100	–	> 100	–	> 100	–	63.3 µM	–	> 100	–	> 100 µM	–	88.9 µM	–	90.1	–	> 100 µM
NC[C@@](O)(c1ccc(Cl)cc1)c1ccc(-c2cn[nH]c2)cc1	0.0445 µM and 0.0376 µM	1.85 µM and 1.45 µM	1.49	3	> 100	> 100	2.14 µM and 1.98 µM	> 100	1.01 µM	2.36 µM	2.41 µM and 0.824 µM	–	1.89 µM	4.5 µM	2.23 µM	> 10 µM	8.67	> 10	3.22 µM and 1.96 µM	> 25.6 µM and 4.44 µM
CC/C=C\C/C=C\C[C@H]1C/C=C2/C(=O)C=C[C@H]2C/C=C\CCC(=O)O1	2.72 µM	8.01 µM	3.06	9.71	2.77	5.37	3.48 µM	10.5	4.44 µM	> 14.3 µM	2.89 µM	13	3.45 µM	9.94 µM	10 µM	> 14.3 µM	4.13	> 14.3	2.11 µM	5.01 µM
COc1cc(-c2cc(CCC(=O)Nc3ccccc3[N+](=O)[O-])n(-c3ccc([N+](=O)[O-])cc3[N+](=O)[O-])n2)ccc1O	> 100 µM	> 100 µM	> 100	> 100	> 100	> 100	> 100 µM	> 100	> 100 µM	> 100 µM	> 100 µM	> 100	> 100 µM	> 100 µM	> 100 µM	> 100 µM	> 100	> 100	–	> 10 µM
Cn1c(=S)sc2nc3ccccc3n2c1=S	–	25.8 µM	–	25.1	–	35.2	–	38.7	–	27.1 µM	–	43.7	–	> 100 µM	–	36.5 µM	–	29.1	–	25.4 µM
Cc1cccc(C[C@H](NC(=O)Nc2ccc(Cl)cc2F)C(=O)N[C@@H]2C(=O)N3C[C@H](OC(=O)CCN(C)C)C[C@H]3C(=O)N3CCCC[C@H]3C(=O)N[C@@H](C)C(=O)N3C[C@H](C)C[C@H]3C(=O)O[C@H]2C)c1 ({NH(4-Cl-2-F-phenyl)-CO}-[Phe(3-Me)][aThr][Hyp](Propanoyl(3-NMe2))[Pip]A[Pro(4R-Me)]; ester 2-C)	0.572 µM	2.66 µM	0.441	7.27	0.476	1.77	0.811 µM	4.65	0.704 µM	2.17 µM	0.47 µM	7.81	0.667 µM	2.67 µM	0.487 µM	5.74 µM	0.552	2.53	0.362 µM	1.47 µM
COC(=O)NN1C(C)=C(C(=O)OC)C2(CCOC2=O)C1(C)O (stereo not drawn)	–	> 100 µM	–	> 100	–	> 100	–	> 100	–	> 100 µM	–	> 100	–	> 100 µM	–	> 100 µM	–	> 100	–	> 100 µM
O=C(Nc1ccc(Br)cc1F)c1cc(Br)ccc1O	0.177 µM	0.651 µM	0.64	13.3	2.87	10.8	1.45 µM	4.49	0.552 µM	4.64 µM	2.03 µM	> 44.4	0.387 µM	2.42 µM	1.62 µM	8.12 µM	2.97	33.3	0.535 µM	8.62 µM
CC(=O)OCC1OC(n2c(-c3ccccc3)c(C)c(C)c(C#N)c2=S)C(OC(C)=O)C(OC(C)=O)C1OC(C)=O (stereo not drawn)	0.0211 µM	24 µM	–	34.6	–	> 100	–	> 100	14.4 µM and > 100 µM	36.8 µM and > 100 µM	49.2 µM and > 100 µM	> 100	35.5 µM and 14.6 µM	> 50 µM and 41.3 µM	13.2 µM and > 100 µM	48.8 µM and > 100 µM	–	> 100	–	> 100 µM

— PubChem BioAssay (NCI)
